In ChEMBL document CHEMBL1131683, “Preparation of pyrrolidine and isoxazolidine benzamidines as potent inhibitors of coagulation factor Xa” (Bioorg Med Chem Lett, 1999):

How the values were obtained:
Coagulation factor X = Coagulation factor X (Homo sapiens, UniProt P00742); test: Binding affinity against Coagulation factor X in an enzyme inhibition assay.
Serine protease 1 = Serine protease 1 (Homo sapiens, UniProt P07477); test: Binding affinity against trypsin in an enzyme inhibition assay.
[1] = Clearance rate in rabbits; format: ADME, organism-based, Oryctolagus cuniculus; conditions: rabbit, in vivo
[2] = Half life value in rabbits; format: ADME, Oryctolagus cuniculus; conditions: rabbit, in vivo
Oryctolagus cuniculus = species on record: Oryctolagus cuniculus; test: Compound was tested for its effect in rabbit arterio-venous (A-V) shunt thrombosis model and the inhibitory dose was reported; format: functional

Coagulation factor X, sequence (P00742 41-179 limits assumed): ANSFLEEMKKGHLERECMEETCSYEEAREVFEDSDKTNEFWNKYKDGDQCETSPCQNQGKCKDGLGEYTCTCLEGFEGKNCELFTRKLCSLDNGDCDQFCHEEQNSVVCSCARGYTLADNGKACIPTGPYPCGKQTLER
Coagulation factor X, sequence (P00742 235-488 limits assumed): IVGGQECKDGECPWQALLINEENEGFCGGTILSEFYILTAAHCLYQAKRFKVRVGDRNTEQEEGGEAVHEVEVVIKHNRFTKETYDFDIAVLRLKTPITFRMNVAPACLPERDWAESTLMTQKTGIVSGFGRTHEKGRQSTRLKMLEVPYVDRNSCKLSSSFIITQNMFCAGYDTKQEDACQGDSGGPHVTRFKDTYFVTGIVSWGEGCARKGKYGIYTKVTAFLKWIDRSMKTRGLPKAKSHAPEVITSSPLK
Serine protease 1, sequence (P07477 whole entry): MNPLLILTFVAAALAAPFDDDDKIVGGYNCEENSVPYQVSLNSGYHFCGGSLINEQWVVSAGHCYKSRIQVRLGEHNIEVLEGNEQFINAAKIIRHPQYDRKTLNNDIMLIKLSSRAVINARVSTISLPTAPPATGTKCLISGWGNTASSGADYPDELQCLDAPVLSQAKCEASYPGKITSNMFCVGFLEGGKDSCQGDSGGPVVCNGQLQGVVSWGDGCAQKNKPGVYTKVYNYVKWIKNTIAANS

| Compound | Ki (Coagulation factor X) [nM] | Ki (Serine protease 1) [nM] | clearance [1] [mL/min/kg] | half-life [2] [h] | ID50 (Oryctolagus cuniculus) [µM/h/kg] |
| --- | --- | --- | --- | --- | --- |
| CC(=O)[C@@H]1CN(Cc2ccc(-c3ccccc3S(N)(=O)=O)cc2)C[C@H]1c1cccc(C(=N)N)c1 | 36 | 200 |  |  |  |
| N=C(N)c1cccc([C@@H]2CN(Cc3ccc(-c4ccccc4S(N)(=O)=O)cc3)C[C@H]2C(N)=O)c1 | 150 | 500 |  |  |  |
| COC(=O)[C@H]1CN(Cc2ccc(-c3ccccc3S(N)(=O)=O)cc2)C[C@H]1c1cccc(C(=N)N)c1 | 170 | > 1600 |  |  |  |
| CN(C)C(=O)[C@@H]1CN(Cc2ccc(-c3ccccc3S(N)(=O)=O)cc2)C[C@H]1c1cccc(C(=N)N)c1 | 400 |  |  |  |  |
| CCOC(=O)[C@]1(C)CN(Cc2ccc(-c3ccccc3S(N)(=O)=O)cc2)C[C@H]1c1cccc(C(=N)N)c1 | 26 | 750 |  |  |  |
| N=C(N)c1cccc([C@@H]2CN(Cc3ccc(-c4ccccc4S(N)(=O)=O)cc3)C[C@@H]2C(=O)O)c1 | 460 |  |  |  |  |
| COC(=O)[C@H]1CN(Cc2ccc(-c3ccccc3S(N)(=O)=O)cc2)C[C@@H]1c1cccc(C(=N)N)c1 | 13 | 200 |  |  |  |
| N=C(N)c1cccc([C@@H]2CN(Cc3ccc(-c4ccccc4S(N)(=O)=O)cc3)C[C@H]2C(=O)O)c1 | 600 |  |  |  |  |

Stronger by Ki (Coagulation factor X), values ahead:

| Ki (Coagulation factor X) [nM] | Ki (Serine protease 1) [nM] | clearance [1] [mL/min/kg] | half-life [2] [h] | Compound | ID50 (Oryctolagus cuniculus) [µM/h/kg] |
| --- | --- | --- | --- | --- | --- |
| 12 | 110 |  |  | CCCCOC(=O)[C@@H]1CN(Cc2ccc(-c3ccccc3S(N)(=O)=O)cc2)C[C@H]1c1cccc(C(=N)N)c1 |  |
| 5.8 | 98 | > 33.3 | < 1 | CC(C)OC(=O)[C@@H]1CN(Cc2ccc(-c3ccccc3S(N)(=O)=O)cc2)C[C@H]1c1cccc(C(=N)N)c1.O=C(O)C(F)(F)F.O=C(O)C(F)(F)F |  |
| 4.8 | 63 |  |  | COC(=O)[C@@H]1CN(Cc2ccc(-c3ccccc3S(N)(=O)=O)cc2)C[C@H]1c1cccc(C(=N)N)c1.O=C(O)C(F)(F)F.O=C(O)C(F)(F)F (stereo in doubt; 10) | >1.4 |
| 3.4 | 52 |  |  | COC(=O)[C@@H]1CN(Cc2ccc(-c3ccccc3S(N)(=O)=O)cc2)C[C@H]1c1cccc(C(=N)N)c1 (stereo in doubt; 15) |  |
| 3.1 | 69 |  |  | COC(=O)[C@@H]1CN(Cc2ccc(-c3ccccc3S(N)(=O)=O)cc2)O[C@H]1c1cccc(C(=N)N)c1 |  |
| 1.8 | 93 | > 33.3 | < 1 | CC(C)OC(=O)[C@@H]1CN(Cc2ccc(-c3ccccc3S(N)(=O)=O)cc2)O[C@H]1c1cccc(C(=N)N)c1.O=C(O)C(F)(F)F.O=C(O)C(F)(F)F |  |
| 1.3 |  |  |  | COC(=O)CN(CCCc1ccc(-c2ccccc2S(N)(=O)=O)cc1)c1cccc(C(=N)N)c1 |  |
